Measurements: patent US20230017045A1, “PYRIDINE AND PYRIMIDINE CARBOXYLATE HERBICIDES AND METHODS OF USE THEREOF” (Dow AgroSciences LLC, priority 2017, published 2023)

system: test plant species; experiment: Post-emergent herbicidal activity test (greenhouse, foliar spray, visual growth reduction); assay type: in vivo; conditions: post-emergence, 336 h, ECHCG: barnyardgrass (Echinochloa crus-galli), 140 g ai/ha, 14 days after application, read-out: Visual Growth Reduction (%) 14 Days After Application, ECHCG
Experimental: Post-emergent Test: Seeds or nutlets of the desired test plant species were planted in Sun Gro Metro-Mix® 360 planting mixture, which typically has a pH of 6.0 to 6.8 and an organic matter content of about 30 percent, in plastic pots with a surface area of 64 square centimeters. In some aspects, to ensure good germination and healthy plants, a fungicide treatment and/or other chemical or physical treatment was applied. The plants were grown for 7-21 d in a greenhouse with an approximate 15 h photoperiod which was maintained at 23-29° C. during the day and 22-28° C. during the night. Nutrients and water were added on a regular basis and supplemental lighting was provided with overhead metal halide 1000-Watt lamps as necessary. Plants were used for testing when they reached the first or second true leaf stage. A weighed amount, determined by the highest rate to be tested, of each test compound was placed in a 25 mL glass vial and was dissolved in 4 mL of a 97:3 v/v mixture of acetone and DMSO to obtain concentrated stock solutions. […] The concentrated stock solutions obtained were diluted with 20 mL of an aqueous mixture containing acetone, water, isopropyl alcohol, DMSO, […] crop oil concentrate, and X-77 surfactant in a 48.5:39:10:1.5:1.0:0.02 v/v ratio to obtain spray solutions containing the application rate. Compound requirements are based upon a 12 mL application volume at a rate of 187 liters per hectare (L/ha). Formulated compounds were applied to the plant material with an overhead Mandel track sprayer equipped with […] nozzles calibrated to deliver 187 L/ha over an application area of 0.64 square meters at a spray height of 18 inches (43 cm) above the average plant canopy height. Control plants were sprayed in the same manner with the solvent blank. The treated plants and control plants were placed in a greenhouse as described above and watered by subirrigation to prevent wash-off of the test compounds. After 14 d, the condition of the test plants as compared with that of the nontreated and control plants was determined visually and scored on a scale of 0 to 100 percent where 0 corresponds to no injury and 100 corresponds to complete control. In the reporting of the results, Table A: Percent Growth Reduction Conversion Table was used.

Structure (SMILES)	pest or weed control at 140 g/ha [%]
CCC(F)c1c(Cl)ccc(-c2ccc(Cl)c(C(=O)OC)n2)c1F (centres unmarked) [F285, Methyl 3-chloro-6-(4-chloro-2-fluoro-3-(1-fluoropropyl)phenyl) picolinate]	0 to 29
COc1cc2c(cc1-c1nc(C(=O)O)c(Cl)cc1F)OC(F)(F)O2 [F344, 3-Chloro-6-(2,2-difluoro-6-methoxybenzo[d][1,3]dioxol-5-yl)-5-fluoropicolinic acid]	0 to 29

same assay, conditions: post-emergence, 336 h, IPOHE: ivy-leaf morning glory (Ipomoea hederacea), 140 g ai/ha, 14 days after application, read-out: Visual Growth Reduction (%) 14 Days After Application, IPOHE

Structure (SMILES)	pest or weed control at 140 g/ha [%]
CCC(F)c1c(Cl)ccc(-c2ccc(Cl)c(C(=O)OC)n2)c1F (centres unmarked) [F285, Methyl 3-chloro-6-(4-chloro-2-fluoro-3-(1-fluoropropyl)phenyl) picolinate]	0 to 29
COc1cc2c(cc1-c1nc(C(=O)O)c(Cl)cc1F)OC(F)(F)O2 [F344, 3-Chloro-6-(2,2-difluoro-6-methoxybenzo[d][1,3]dioxol-5-yl)-5-fluoropicolinic acid]	95 to 100

same assay, conditions: post-emergence, 336 h, KCHSC: kochia (Bassia scoparia), 140 g ai/ha, 14 days after application, read-out: Visual Growth Reduction (%) 14 Days After Application, KCHSC

Structure (SMILES)	pest or weed control at 140 g/ha [%]
CCC(F)c1c(Cl)ccc(-c2ccc(Cl)c(C(=O)OC)n2)c1F (centres unmarked) [F285, Methyl 3-chloro-6-(4-chloro-2-fluoro-3-(1-fluoropropyl)phenyl) picolinate]	0 to 29
COc1cc2c(cc1-c1nc(C(=O)O)c(Cl)cc1F)OC(F)(F)O2 [F344, 3-Chloro-6-(2,2-difluoro-6-methoxybenzo[d][1,3]dioxol-5-yl)-5-fluoropicolinic acid]	45 to 59

same assay, conditions: post-emergence, 336 h, ORYSA: rice (Oryza sativa), 140 g ai/ha, 14 days after application, read-out: Visual Growth Reduction (%) 14 Days After Application, ORYSA

Structure (SMILES)	pest or weed control at 140 g/ha [%]
CCC(F)c1c(Cl)ccc(-c2ccc(Cl)c(C(=O)OC)n2)c1F (centres unmarked) [F285, Methyl 3-chloro-6-(4-chloro-2-fluoro-3-(1-fluoropropyl)phenyl) picolinate]	0 to 29
COc1cc2c(cc1-c1nc(C(=O)O)c(Cl)cc1F)OC(F)(F)O2 [F344, 3-Chloro-6-(2,2-difluoro-6-methoxybenzo[d][1,3]dioxol-5-yl)-5-fluoropicolinic acid]	0 to 29

same assay, conditions: post-emergence, 336 h, SETFA: giant foxtail (Setaria faberi), 140 g ai/ha, 14 days after application, read-out: Visual Growth Reduction (%) 14 Days After Application, SETFA

Structure (SMILES)	pest or weed control at 140 g/ha [%]
CCC(F)c1c(Cl)ccc(-c2ccc(Cl)c(C(=O)OC)n2)c1F (centres unmarked) [F285, Methyl 3-chloro-6-(4-chloro-2-fluoro-3-(1-fluoropropyl)phenyl) picolinate]	0 to 29
COc1cc2c(cc1-c1nc(C(=O)O)c(Cl)cc1F)OC(F)(F)O2 [F344, 3-Chloro-6-(2,2-difluoro-6-methoxybenzo[d][1,3]dioxol-5-yl)-5-fluoropicolinic acid]	60 to 74

same assay, conditions: post-emergence, 336 h, SORVU: grain sorghum (Sorghum vulgare), 140 g ai/ha, 14 days after application, read-out: Visual Growth Reduction (%) 14 Days After Application, SORVU

Structure (SMILES)	pest or weed control at 140 g/ha [%]
CCC(F)c1c(Cl)ccc(-c2ccc(Cl)c(C(=O)OC)n2)c1F (centres unmarked) [F285, Methyl 3-chloro-6-(4-chloro-2-fluoro-3-(1-fluoropropyl)phenyl) picolinate]	0 to 29
COc1cc2c(cc1-c1nc(C(=O)O)c(Cl)cc1F)OC(F)(F)O2 [F344, 3-Chloro-6-(2,2-difluoro-6-methoxybenzo[d][1,3]dioxol-5-yl)-5-fluoropicolinic acid]	75 to 84

same assay, conditions: post-emergence, 336 h, STEME: common chickweed (Stellaria media), 140 g ai/ha, 14 days after application, read-out: Visual Growth Reduction (%) 14 Days After Application, STEME

Structure (SMILES)	pest or weed control at 140 g/ha [%]
CCC(F)c1c(Cl)ccc(-c2ccc(Cl)c(C(=O)OC)n2)c1F (centres unmarked) [F285, Methyl 3-chloro-6-(4-chloro-2-fluoro-3-(1-fluoropropyl)phenyl) picolinate]	0 to 29
COc1cc2c(cc1-c1nc(C(=O)O)c(Cl)cc1F)OC(F)(F)O2 [F344, 3-Chloro-6-(2,2-difluoro-6-methoxybenzo[d][1,3]dioxol-5-yl)-5-fluoropicolinic acid]	0 to 29

same assay, conditions: post-emergence, 336 h, TRZAS: wheat, spring (Triticum aestivum), 140 g ai/ha, 14 days after application, read-out: Visual Growth Reduction (%) 14 Days After Application, TRZAS

Structure (SMILES)	pest or weed control at 140 g/ha [%]
CCC(F)c1c(Cl)ccc(-c2ccc(Cl)c(C(=O)OC)n2)c1F (centres unmarked) [F285, Methyl 3-chloro-6-(4-chloro-2-fluoro-3-(1-fluoropropyl)phenyl) picolinate]	0 to 29
COc1cc2c(cc1-c1nc(C(=O)O)c(Cl)cc1F)OC(F)(F)O2 [F344, 3-Chloro-6-(2,2-difluoro-6-methoxybenzo[d][1,3]dioxol-5-yl)-5-fluoropicolinic acid]	45 to 59

same assay, conditions: post-emergence, 336 h, blackgrass (Alopecurus myosuroides), 14 Days After Application, 140 g ai/ha, read-out: Visual Growth Reduction (%) ALOMY

Structure (SMILES)	pest or weed control at 140 g/ha [%]
CCC(F)c1c(Cl)ccc(-c2ccc(Cl)c(C(=O)OC)n2)c1F (centres unmarked) [F285, Methyl 3-chloro-6-(4-chloro-2-fluoro-3-(1-fluoropropyl)phenyl) picolinate]	0 to 29
COc1cc2c(cc1-c1nc(C(=O)O)c(Cl)cc1F)OC(F)(F)O2 [F344, 3-Chloro-6-(2,2-difluoro-6-methoxybenzo[d][1,3]dioxol-5-yl)-5-fluoropicolinic acid]	0 to 29

same assay, conditions: post-emergence, 336 h, canada thistle (Cirsium arvense), 14 Days After Application, 140 g ai/ha, read-out: Visual Growth Reduction (%) CIRAR

Structure (SMILES)	pest or weed control at 140 g/ha [%]
CCC(F)c1c(Cl)ccc(-c2ccc(Cl)c(C(=O)OC)n2)c1F (centres unmarked) [F285, Methyl 3-chloro-6-(4-chloro-2-fluoro-3-(1-fluoropropyl)phenyl) picolinate]	30 to 44

same assay, conditions: post-emergence, 336 h, crabgrass (Digitaria sanguinalis), 14 Days After Application, 140 g ai/ha, read-out: Visual Growth Reduction (%) DIGSA

Structure (SMILES)	pest or weed control at 140 g/ha [%]
CCC(F)c1c(Cl)ccc(-c2ccc(Cl)c(C(=O)OC)n2)c1F (centres unmarked) [F285, Methyl 3-chloro-6-(4-chloro-2-fluoro-3-(1-fluoropropyl)phenyl) picolinate]	0 to 29
COc1cc2c(cc1-c1nc(C(=O)O)c(Cl)cc1F)OC(F)(F)O2 [F344, 3-Chloro-6-(2,2-difluoro-6-methoxybenzo[d][1,3]dioxol-5-yl)-5-fluoropicolinic acid]	60 to 74

same assay, conditions: post-emergence, 336 h, lambsquarters (Chenopodium album), 14 Days After Application, 140 g ai/ha, read-out: Visual Growth Reduction (%) CHEAL

Structure (SMILES)	pest or weed control at 140 g/ha [%]
CCC(F)c1c(Cl)ccc(-c2ccc(Cl)c(C(=O)OC)n2)c1F (centres unmarked) [F285, Methyl 3-chloro-6-(4-chloro-2-fluoro-3-(1-fluoropropyl)phenyl) picolinate]	0 to 29
COc1cc2c(cc1-c1nc(C(=O)O)c(Cl)cc1F)OC(F)(F)O2 [F344, 3-Chloro-6-(2,2-difluoro-6-methoxybenzo[d][1,3]dioxol-5-yl)-5-fluoropicolinic acid]	30 to 44

same assay, conditions: post-emergence, 336 h, redroot pigweed (Amaranthus retroflexus), 14 Days After Application, 140 g ai/ha, read-out: Visual Growth Reduction (%) AMARE

Structure (SMILES)	pest or weed control at 140 g/ha [%]
CCC(F)c1c(Cl)ccc(-c2ccc(Cl)c(C(=O)OC)n2)c1F (centres unmarked) [F285, Methyl 3-chloro-6-(4-chloro-2-fluoro-3-(1-fluoropropyl)phenyl) picolinate]	0 to 29
COc1cc2c(cc1-c1nc(C(=O)O)c(Cl)cc1F)OC(F)(F)O2 [F344, 3-Chloro-6-(2,2-difluoro-6-methoxybenzo[d][1,3]dioxol-5-yl)-5-fluoropicolinic acid]	0 to 29

same assay, conditions: post-emergence, 336 h, wild oat (Avena fatua), 14 Days After Application, 140 g ai/ha, read-out: Visual Growth Reduction (%) AVEFA

Structure (SMILES)	pest or weed control at 140 g/ha [%]
CCC(F)c1c(Cl)ccc(-c2ccc(Cl)c(C(=O)OC)n2)c1F (centres unmarked) [F285, Methyl 3-chloro-6-(4-chloro-2-fluoro-3-(1-fluoropropyl)phenyl) picolinate]	0 to 29
COc1cc2c(cc1-c1nc(C(=O)O)c(Cl)cc1F)OC(F)(F)O2 [F344, 3-Chloro-6-(2,2-difluoro-6-methoxybenzo[d][1,3]dioxol-5-yl)-5-fluoropicolinic acid]	0 to 29

same assay, conditions: post-emergence, 336 h, yellow nutsedge (Cyperus esculentus), 14 Days After Application, 140 g ai/ha, read-out: Visual Growth Reduction (%) CYPES

Structure (SMILES)	pest or weed control at 140 g/ha [%]
CCC(F)c1c(Cl)ccc(-c2ccc(Cl)c(C(=O)OC)n2)c1F (centres unmarked) [F285, Methyl 3-chloro-6-(4-chloro-2-fluoro-3-(1-fluoropropyl)phenyl) picolinate]	0 to 29
COc1cc2c(cc1-c1nc(C(=O)O)c(Cl)cc1F)OC(F)(F)O2 [F344, 3-Chloro-6-(2,2-difluoro-6-methoxybenzo[d][1,3]dioxol-5-yl)-5-fluoropicolinic acid]	0 to 29
